# Laboratory results published in patent publication US10130647B2, “Use of ginsenoside M1 for preventing or treating silicosis” (WELLHEAD […]., priority 2015, dated 2018).
# Assays:
# [1] = tested on: mouse J774A.1 macrophages; assay: Silica crystal-induced IL-1β production in LPS-treated J774A.1 macrophages (ELISA); assay type: cell-based; conditions: M1 30 min, then 1 μg/ml LPS, then 200 μg/ml silica crystal 24 h, FIG. 1, p<0.001 vs silica crystals alone
# Description: The levels of IL-1β in the culture medium were measured by ELISA. *** indicates a significant difference at the level of p<0.001 compared to […].
# In FIG. 1, J774A.1 macrophages (1×10^5 cells/500 μl medium/well) were incubated for 30 min with or without Ginsenoside M1, then for 2 h with or without 1 μg/ml LPS (from Escherichia coli 0111:B4, purchased from Sigma, St. Louis, Mo.) in the continued presence or absence of Ginsenoside M1, and then for 24 h with or without 200 μg/ml silica crystal (purchased from InvivoGen, San Diego, Calif.). The levels of IL-1β in the culture medium were measured by ELISA.
# (§1) For ELISA assay, 50 μl of biotinylated antibody reagent and 50 μl of culture medium were added to an anti-IL-1β, TNF-α or IL-6 precoated stripwell plate, and incubated at room temperature for 2 h. After washing the plate three times with washing buffer, 100 μl of diluted streptavidin-HRP (horseradish peroxidase) concentrate was added to each well and incubated at room temperature for 30 min. The washing process was repeated; then 100 μl of a premixed tetramethylbenzidine substrate solution was added to each well and developed at room temperature in the dark for 30 min Following the addition of 100 μl of provided stop solution to each well to stop the reaction, the absorbance of the plate was measured by a microplate reader at a 450 nm wavelength. […]
# human THP-1 macrophages = assay: Silica crystal-induced cytokine production in THP-1 macrophages, Ginsenoside M1 added before LPS (ELISA); assay type: cell-based; conditions: M1 30 min, then 1 μg/ml LPS 5 h, then 200 μg/ml silica crystal 24 h
# Description: The levels of IL-1β in the culture medium were measured by ELISA. ** indicates a significant difference at the level of p<0.01 compared to silica crystal alone.
# The levels of TNF-α in the culture medium were measured by ELISA. ** and *** indicates a significant difference at the level of p<0.01 and p<0.001, respectively compared to silica crystal alone.
# The levels of IL-6 in the culture medium were measured by ELISA. * and *** indicates a significant difference at the level of p<0.05 and p<0.001, respectively compared to silica crystal alone.
# (§2) The mouse macrophages cell line J774A.1 and human monocytic leukemia cell line THP-1 was obtained from the American Type Culture Collection (Rockville, Md.) and cultured in RPMI 1640 medium supplemented with 10% heat-inactivated fetal bovine serum (FBS) and 2 mM L-glutamine (all from Life Technologies, Carlsbad, Calif.) at 37° C. in a 5% CO2 incubator. To induce monocyte-to-macrophage differentiation, THP-1 cells were cultured for 48 h in RPMI-1640 medium supplemented with 100 nM phorbol 12-myristate 13-acetate (Sigma-Aldrich).
# In FIG. 3-5, THP-1 macrophages (1×10^5 cells/500 μl medium/well) were incubated for 30 min with or without Ginsenoside M1, then for 5 h with or without 1 μg/ml LPS in the continued presence or absence of Ginsenoside M1, and then for 24 h with or without 200 μg/ml silica crystal (purchased from InvivoGen, San Diego, Calif.). The levels of IL-1β (FIG. 3), TNF-α (FIG. 4) and IL-6 (FIG. 5) in the culture medium were measured by ELISA.
# as §1, with “After washing the plate three times with washing buffer, 100 μl of diluted streptavidin-HRP (horseradish peroxidase) concentrate was added to each well and incubated at room temperature for 30 min.” left out
# [2] = tested on: mouse J774A.1 macrophages; assay: LPS-induced NLRP3 and proIL-1β expression in J774A.1 macrophages (Western blot); assay type: cell-based; conditions: M1 30 min, then 1 μg/ml LPS 6 h, FIG. 2
# Description: The levels of NLRP3 and […] in the cell lysates were measured by Western blot.
# In FIG. 2, J774A.1 macrophages (2×10^6 cells/2 ml medium/dish) were incubated for 30 min with or without Ginsenoside M1, then for 6 h with or without 1 μg/ml LPS in the continued presence or absence of Ginsenoside M1. The levels of NLRP3 and proIL-1β in the cell lysates were measured by Western blot. In brief, After treatment, the cells were collected and lysed at 4° C. in lysis buffer (25 mM Tris-HCl, pH 7.5, 100 mM NaCl, 2.5 mM EDTA, 2.5 mM EGTA, 20 mM NaF, 1 mM Na3VO4, 20 mM sodium β-glycerophosphate, 10 mM sodium pyrophosphate, 0.5% Triton X-100) containing protease inhibitor cocktail (Sigma, St. Louis, Mo.), then the whole cell lysate was separated by SDS-PAGE and electrotransferred to a PVDF membrane. The membranes were incubated for 1 h at room temperature in blocking solution (5% nonfat milk in phosphate buffered saline with 0.1% Tween 20), then were incubated for 2 h at room temperature with NLRP3 or proIL-1β antibody in blocking solution. […]
# J774A.1 macrophages were incubated for 30 min with or without Ginsenoside M1, then for 6 h with or without 1 μg/ml LPS in the continued presence or absence of Ginsenoside M1. The levels of NLRP3 and proIL-1β in the cell lysates were measured by Western blot.
# Male C57BL/6 mice = assay: Silica crystal-induced silicosis in mice, BALF analysis; assay type: in vivo, mouse; conditions: 60 mg/kg oral gavage daily day 0, 1, 2
# Description: In FIG. 9-12, the animal experiments were conducted in accordance with the guidelines of the National Institutes of Health and approved by the Institutional Animal Care and Use Committee of National Ilan University. Male C57BL/6 mice were purchased from the National Laboratory Animal Center (Taipei, Taiwan). The animals were provided a chow diet and water ad libitum under conditions of 22-24° C., 40-70% relative humidity, and a 12 h light-dark cycle. Ginsenoside M1 (60 mg/kg body weight) was oral administered daily by gavage at day 0, 1 and 2. Silicosis in mice was induced by intratracheally exposed to 40 μl aqueous suspensions of 200 μg of silica crystals in PBS daily at day 0, 1 and 2 (n=6). Each day, mice exposed to silica crystals 4 h after Ginsenoside M1 administration. Control mice received PBS. After 4 h of the last silica crystals exposure, all mice were sacrificed using neck breaking, and a bronchoalveolar lavage was carried out by repeatedly instillating and withdrawing 1 ml of 1% BSA/PBS solution three consecutive times. The levels of IL-1β and IL-6 in the bronchoalveolar lavage fluid (BALF) were measured by ELISA. The total cell number in the BALF was counted by a hematocytometer and protein concentration in the BALF was determined by protein assay dye.
# For ELISA assay, 50 μl of biotinylated antibody reagent and 50 μl of culture medium were added to an anti-IL-1β, TNF-α or IL-6 precoated stripwell plate, and incubated at room temperature for 2 h. After washing the plate three times with washing buffer, 100 μl of diluted streptavidin-HRP (horseradish peroxidase) concentrate was added to each well and incubated at room temperature for 30 min. The washing process was repeated; then 100 μl of a premixed tetramethylbenzidine substrate solution was added to each well and developed at room temperature in the dark for 30 min Following the addition of 100 μl of provided stop solution to each well to stop the reaction, the absorbance of the plate was measured by a microplate reader at a 450 nm wavelength.
# [3] = tested on: LPS-primed THP-1 macrophages; assay: Silica crystal-induced cytokine production in LPS-primed THP-1 macrophages, Ginsenoside M1 added after LPS priming (ELISA); assay type: cell-based, human; conditions: THP-1 primed 5 h with 1 μg/ml LPS, then M1 30 min, then 200 μg/ml silica crystal 24 h
# Description: The levels of IL-1β in the culture medium were measured by ELISA. ** and *** indicates a significant difference at the level of p<0.01 and p<0.001, respectively compared to silica crystal alone.
# The levels of TNF-α in the culture medium were measured by ELISA. ** indicates a significant difference at the level of p<0.01 compared to silica crystal alone.
# The levels of IL-6 in the culture medium were measured by ELISA. *** indicates a significant difference at the level of p<0.001 compared to silica crystal alone.
# as §2
# In FIG. 6-8, THP-1 macrophages (1×10^5 cells/500 μl medium/well) were incubated for 5 h with or without 1 μg/ml LPS, then for 30 min with or without Ginsenoside M1 in the continued presence or absence of LPS, and then for 24 h with or without 200 μg/ml silica crystal. The levels of IL-1β (FIG. 6), TNF-α (FIG. 7) and IL-6 (FIG. 8) in the culture medium were measured by ELISA.
# as §1, with “After washing the plate three times with washing buffer, 100 μl of diluted streptavidin-HRP (horseradish peroxidase) concentrate was added to each well and incubated at room temperature for 30 min.” left out
substance,measurement,setting,value
20-O-β-D-glucopyranosyl-20(S)-protopanaxadiol [Ginsenoside M1],IL-1β secretion in the culture medium,[1],reduced
same,IL-1β production,"human THP-1 macrophages; FIG. 3, p<0.01",reduced
same,TNF-α production,"human THP-1 macrophages; FIG. 4, p<0.01 and p<0.001",reduced
same,IL-6 production,"human THP-1 macrophages; FIG. 5, p<0.05 and p<0.001",reduced
same,level of NLRP3 in the cell lysates,[2],reduced
same,level of proIL-1β in the cell lysates,[2],reduced
same,silica crystal-induced IL-1β production in the murine BALF,"Male C57BL/6 mice; intratracheal 200 μg silica crystals 4 h after dosing, FIG. 9, p<0.001",significantly reduced
same,silica crystal-induced IL-6 production in the murine BALF,"Male C57BL/6 mice; intratracheal 200 μg silica crystals 4 h after dosing, FIG. 10, p<0.001",significantly reduced
same,silica crystal-induced increase of total cell number in BALF,"Male C57BL/6 mice; intratracheal 200 μg silica crystals, hematocytometer, FIG. 12, p<0.01",significantly inhibited
same,silica crystal-induced increase of total protein concentration in BALF,"Male C57BL/6 mice; intratracheal 200 μg silica crystals, protein assay dye, FIG. 11, p<0.001",significantly inhibited
same,IL-1β production,"[3]; FIG. 6, p<0.01 and p<0.001",reduced
same,TNF-α production,"[3]; FIG. 7, p<0.01",reduced
same,IL-6 production,"[3]; FIG. 8, p<0.001",reduced
